Among the data in US9340513B2, “Propenoate derivatives of betulin” (GlaxoSmithKline LLC, priority 2011, dated 2016) are IC50 values, retold here.

The assay relates to HIV-1 (strain IIIB). Description: MT4 Cell Antiviral Assay. Format: cell-based. The note with it: Human immunodeficiency virus 1, 120 h; HIV-1 strain IIIB in MT4 cells, 5 days, Cell Titer-Glo; 50% decrease in HIV-induced cytopathic effect. As to the method:
Antiviral HIV activity and compound-induced cytotoxicity were measured in parallel based on a modified protocol of the propidium iodide based procedure in the human T-cell lymphotropic virus transformed cell line MT4. Aliquots of the test compounds were serially diluted in DMSO plated in 96-well plates. Exponentially growing MT4 cells were harvested and pelleted. Cell pellets were resuspended in fresh medium (RPMI 1640, 10% FCS, and gentamycin. Cell aliquots were infected by the addition of HIV-1 (strain IIIB) diluted to give a viral multiplicity of infection of 300×TCID50/million cells. A similar cell aliquot was diluted with medium to provide a mock-infected control. Cell infection was allowed to proceed for 1 hr at 37° C. in a tissue culture incubator with humidified 5% CO2 atmosphere. After the 1 hr incubation the virus/cell suspensions were diluted with fresh medium, and added to each well of the plate containing pre-diluted compound. Plates were then placed in a tissue culture incubator with humidified 5% CO2 for 5 days. […] The plates were analyzed in an automated plate reader for luminescence.assay. The control and standard used was efavirinz tested over a concentration range of 0.001 to 1 μM in every assay. The expected range of IC50 values for efavirinz is 0.1 to 1 nM.
The antiviral effect of a test compound is reported as an IC50, i.e. the inhibitory concentration that would produce a 50% decrease in the HIV-induced cytopathic effect. This effect is measured by the amount of test compound required to restore 50% of the cell growth of HIV-infected MT4 cells, compared to uninfected MT4 cell controls. IC50 was calculated by RoboSage, Automated Curve Fitting Program.
For each assay plate, the results (of wells containing uninfected cells or infected cells with no compound were averaged, respectively. For measurements of compound-induced cytotoxicty, results from wells containing various compound concentrations and uninfected cells were compared to the average of uninfected cells without compound treatment. Percent of cells remaining is determined by the following formula: Percent of cells remaining=(compound-treated uninfected cells/untreated uninfected cells)×100.
A level of percent of cells remaining of 79% or less indicates a significant level of direct compound-induced cytotoxicity for the compound at that concentration. When this condition occurs the results from the compound-treated infected wells at this concentration are not included in the calculation of IC50.
For measurements of compound antiviral activity, results from wells containing various compound concentrations and infected cells are compared to the average of uninfected and infected cells without compound treatment. Percent inhibition of virus is determined by the following formula: Percent inhibition of virus=(1−((ave. untreated uninfected cells−treated infected cells)/(ave. untreated uninfected cells−ave. untreated infected cells)))×100
As to `CC(C)C1=C2[C@H]3CC[C@@H]4[C@@]5(C)CC[C@H](OC(=O)CC(C)(C)C(=O)O)C(C)(C)[C@@H]5CC[C@@]4(C)[C@]3(C)CC[C@@]2(/C=C/C(=O)N[C@H](C)c2ccccc2Cl)CC1=O` [Example 22, 4-(((3aS,5aR,5bR,7aR,9S,11aR,11bR,13aS)-3a-((E)-3-(((R)-1-(2-Chlorophenyl)ethyl)amino)-3-oxoprop-1-en-1-yl)-1-isopropyl-5a,5b,8,8,11a-pentamethyl-2-oxo-3,3a,4,5,5a,5b,6,7,7a,8,9,10,11,11a,11b,12,13,13a-octadecahydro-2H-cyclopenta[a]chrysen-9-yl)oxy)-2,2-dimethyl-4-oxobutanoic acid], the IC50 was 0.01 to 0.25 µM. Take `CC(C)C1=C2[C@H]3CC[C@@H]4[C@@]5(C)CC[C@H](OC(=O)CC(C)(C)C(=O)O)C(C)(C)[C@@H]5CC[C@@]4(C)[C@]3(C)CC[C@@]2(/C=C/C(=O)N[C@@H](C)c2cccc(Cl)c2)CC1=O` [Example 23, 4-(((3aS,5aR,5bR,7aR,9S,11aR,11bR,13aS)-3a-((E)-3-(((S)-1-(3-Chlorophenyl)ethyl)amino)-3-oxoprop-1-en-1-yl)-1-isopropyl-5a,5b,8,8,11a-pentamethyl-2-oxo-3,3a,4,5,5a,5b,6,7,7a,8,9,10,11,11a,11b,12,13,13a-octadecahydro-2H-cyclopenta[a]chrysen-9-yl)oxy)-2,2-dimethyl-4-oxobutanoic acid]: the IC50 lay within 0.01 to 0.25 µM.

The compound `CC(C)C1=C2[C@H]3CC[C@@H]4[C@@]5(C)CC[C@H](OC(=O)CC(C)(C)C(=O)O)C(C)(C)[C@@H]5CC[C@@]4(C)[C@]3(C)CC[C@@]2(/C=C/C(=O)NC2(c3cccc(Cl)c3)CC2)CC1=O` [Example 24, 4-(((3aS,5aR,5bR,7aR,9S,11aR,11bR,13aS)-3a-((E)-3-((1-(3-Chlorophenyl)cyclopropyl)amino)-3-oxoprop-1-en-1-yl)-1-isopropyl-5a,5b,8,8,11a-pentamethyl-2-oxo-3,3a,4,5,5a,5b,6,7,7a,8,9,10,11,11a,11b,12,13,13a-octadecahydro-2H-cyclopenta[a]chrysen-9-yl)oxy)-2,2-dimethyl-4-oxobutanoic acid] showed an IC50 of less than 0.01 µM.

`CC(C)C1=C2[C@H]3CC[C@@H]4[C@@]5(C)CC[C@H](OC(=O)CC(C)(C)C(=O)O)C(C)(C)[C@@H]5CC[C@@]4(C)[C@]3(C)CC[C@@]2(/C=C/C(=O)N[C@@H](C)c2ccccc2Cl)CC1=O` [Example 25, 4-(((3aS,5aR,5bR,7aR,9S,11aR,11bR,13aS)-3a-((E)-3-(((S)-1-(2-Chlorophenyl)ethyl)amino)-3-oxoprop-1-en-1-yl)-1-isopropyl-5a,5b,8,8,11a-pentamethyl-2-oxo-3,3a,4,5,5a,5b,6,7,7a,8,9,10,11,11a,11b,12,13,13a-octadecahydro-2H-cyclopenta[a]chrysen-9-yl)oxy)-2,2-dimethyl-4-oxobutanoic acid] had an IC50 of 0.01 to 0.25 µM. With `CC(C)C1=C2[C@H]3CC[C@@H]4[C@@]5(C)CC[C@H](OC(=O)CC(C)(C)C(=O)O)C(C)(C)[C@@H]5CC[C@@]4(C)[C@]3(C)CC[C@@]2(/C=C/C(=O)NC2(c3ncc(Cl)cn3)CC2)CC1=O` [Example 26, 4-(((3aS,5aR,5bR,7aR,9S,11aR,11bR,13aS)-3a-((E)-3-((1-(5-Chloropyrimidin-2-yl)cyclopropyl)amino)-3-oxoprop-1-en-1-yl)-1-isopropyl-5a,5b,8,8,11a-pentamethyl-2-oxo-3,3a,4,5,5a,5b,6,7,7a,8,9,10,11,11a,11b,12,13,13a-octadecahydro-2H-cyclopenta[a]chrysen-9-yl)oxy)-2,2-dimethyl-4-oxobutanoic acid] the figure was less than 0.01 µM; with `C/C(=C\[C@@]12CC[C@]3(C)[C@H](CC[C@@H]4[C@@]5(C)CC[C@H](OC(=O)CC(C)(C)C(=O)O)C(C)(C)[C@@H]5CC[C@]43C)C1=C(C(C)C)C(=O)C2)C(=O)NC1(c2ccc(Cl)cc2)CC1` [Example 27, 4-(((3aS,5aR,5bR,7aR,9S,11aR,11bR,13aS)-3a-((E)-3-((1-(4-Chlorophenyl)cyclopropyl)amino)-2-methyl-3-oxoprop-1-en-1-yl)-1-isopropyl-5a,5b,8,8,11a-pentamethyl-2-oxo-3,3a,4,5,5a,5b,6,7,7a,8,9,10,11,11a,11b,12,13,13a-octadecahydro-2H-cyclopenta[a]chrysen-9-yl)oxy)-2,2-dimethyl-4-oxobutanoic acid], less than 0.01 µM. `C/C(=C\[C@@]12CC[C@]3(C)[C@H](CC[C@@H]4[C@@]5(C)CC[C@H](OC(=O)CC(C)(C)C(=O)O)C(C)(C)[C@@H]5CC[C@]43C)C1=C(C(C)C)C(=O)C2)C(=O)NC1(c2ncc(Cl)cn2)CC1` [Example 28, 4-(((3aS,5aR,5bR,7aR,9S,11aR,11bR,13aS)-3a-((E)-3-((1-(5-Chloropyrimidin-2-yl)cyclopropyl)amino)-2-methyl-3-oxoprop-1-en-1-yl)-1-isopropyl-5a,5b,8,8,11a-pentamethyl-2-oxo-3,3a,4,5,5a,5b,6,7,7a,8,9,10,11,11a,11b,12,13,13a-octadecahydro-2H-cyclopenta[a]chrysen-9-yl)oxy)-2,2-dimethyl-4-oxobutanoic acid] registered an IC50 of less than 0.01 µM.

`C/C(=C\[C@@]12CC[C@]3(C)[C@H](CC[C@@H]4[C@@]5(C)CC[C@H](OC(=O)CC(C)(C)C(=O)O)C(C)(C)[C@@H]5CC[C@]43C)C1=C(C(C)C)C(=O)C2)C(=O)NC1(c2cccc(Cl)c2)CC1` [Example 29, 4-(((3aS,5aR,5bR,7aR,9S,11aR,11bR,13aS)-3a-((E)-3-((1-(3-Chlorophenyl)cyclopropyl)amino)-2-methyl-3-oxoprop-1-en-1-yl)-1-isopropyl-5a,5b,8,8,11a-pentamethyl-2-oxo-3,3a,4,5,5a,5b,6,7,7a,8,9,10,11,11a,11b,12,13,13a-octadecahydro-2H-cyclopenta[a]chrysen-9-yl)oxy)-2,2-dimethyl-4-oxobutanoic acid] displayed a concentration for half-maximal inhibition (IC50) of 0.01 to 0.25 µM. The same measure for `CC(C)C1=C2[C@H]3CC[C@@H]4[C@@]5(C)CC[C@H](OC(=O)CC(C)(C)C(=O)O)C(C)(C)[C@@H]5CC[C@@]4(C)[C@]3(C)CC[C@@]2(/C=C/C(=O)NC2CCCCC2)CC1=O` [Example 30, 4-(((3aS,5aR,5bR,7aR,9S,11aR,11bR,13aS)-3a-((E)-3-(Cyclohexylamino)-3-oxoprop-1-en-1-yl)-1-isopropyl-5a,5b,8,8,11a-pentamethyl-2-oxo-3,3a,4,5,5a,5b,6,7,7a,8,9,10,11,11a,11b,12,13,13a-octadecahydro-2H-cyclopenta[a]chrysen-9-yl)oxy)-2,2-dimethyl-4-oxobutanoic acid]: 0.01 to 0.25 µM; for `CC(C)C1=C2[C@H]3CC[C@@H]4[C@@]5(C)CC[C@H](OC(=O)CC(C)(C)C(=O)O)C(C)(C)[C@@H]5CC[C@@]4(C)[C@]3(C)CC[C@@]2(/C=C/C(=O)N[C@H](C)c2cccc(Cl)c2)CC1=O` [Example 31, 4-(((3aS,5aR,5bR,7aR,9S,11aR,11bR,13aS)-3a-((E)-3-(((R)-1-(3-Chlorophenyl)ethyl)amino)-3-oxoprop-1-en-1-yl)-1-isopropyl-5a,5b,8,8,11a-pentamethyl-2-oxo-3,3a,4,5,5a,5b,6,7,7a,8,9,10,11,11a,11b,12,13,13a-octadecahydro-2H-cyclopenta[a]chrysen-9-yl)oxy)-2,2-dimethyl-4-oxobutanoic acid]: 0.01 to 0.25 µM; for `CC(C)C1=C2[C@H]3CC[C@@H]4[C@@]5(C)CC[C@H](OC(=O)CC(C)(C)C(=O)O)C(C)(C)[C@@H]5CC[C@@]4(C)[C@]3(C)CC[C@@]2(/C=C/C(=O)NCCO)CC1=O` [Example 32, 4-(((3aS,5aR,5bR,7aR,9S,11aR,11bR,13aS)-3a-((E)-3-((2-Hydroxyethyl)amino)-3-oxoprop-1-en-1-yl)-1-isopropyl-5a,5b,8,8,11a-pentamethyl-2-oxo-3,3a,4,5,5a,5b,6,7,7a,8,9,10,11,11a,11b,12,13,13a-octadecahydro-2H-cyclopenta[a]chrysen-9-yl)oxy)-2,2-dimethyl-4-oxobutanoic acid]: 0.01 to 0.25 µM. The same measure for `CC(C)C1=C2[C@H]3CC[C@@H]4[C@@]5(C)CC[C@H](OC(=O)CC(C)(C)C(=O)O)C(C)(C)[C@@H]5CC[C@@]4(C)[C@]3(C)CC[C@@]2(/C=C/C(=O)NCC2CCCCC2)CC1=O` [Example 33, 4-(((3aS,5aR,5bR,7aR,9S,11aR,11bR,13aS)-3a-((E)-3-((Cyclohexylmethyl)amino)-3-oxoprop-1-en-1-yl)-1-isopropyl-5a,5b,8,8,11a-pentamethyl-2-oxo-3,3a,4,5,5a,5b,6,7,7a,8,9,10,11,11a,11b,12,13,13a-octadecahydro-2H-cyclopenta[a]chrysen-9-yl)oxy)-2,2-dimethyl-4-oxobutanoic acid]: less than 0.01 µM.
